# Patent publication US20250057862A1, “SIALIC ACID COMPOSITIONS FOR USE IN INHIBITING AND TREATING INFECTIONS IN FISH” (LifeScience AS, priority 2021, published 2025)
# Entries after “also recorded” stand apart in the source; their conditions may differ.
# Legend:
# [1] = Growth and condition (weight, length, fitness factor) on 1% Neu5Ac feed; assay type: in vivo, Atlantic salmon (Salmo salar); settings: postsmolt, Day 78
# Description: (§1) The example describes additional results obtained from feeding salmon a diet containing 1% Neu5Ac w/w. A feeding and morbidity experiment with Atlantic salmon (Salmo salar) was carried out at the Industrial Laboratory in Bergen (ILAB). The purpose of the trial was to investigate the effect of adding 1% Neu5Ac to feed on growth, certain fish health indicators, and the fish's resistance and welfare when infected with salmon lice and ILA virus, respectively. The trial included six main phases, the last two of which ran parallel with different infectious agents (FIG. 4).
# (§2) Day 1-8: Acclimatization. Presmolt (approx. 40 g starting weight), freshwater phase. • Bulk weighing of all fish on day 1. • NB: All the fish received exclusively control feed during the acclimatization phase. • Day 8: First sampling. Day 9-41: Growth and preparation for smoltification, freshwater phase. • Different diets started (and continued) from day 9 onwards. • Light regime changed from 12:12 light/dark to 24 hours light on day 15. • Bulk weighing of fish on day 25. • Temperature increased from 12 to 14 degrees on day 28. • Smoltification starts in response to changed light regime and changed temperature. • Day 36: Second sampling. • Bulk weighing of fish on day 37. Day 42-50: Smoltification, transition and acclimatization to saltwater phase. • From 20 salt water from day 42, full salinity and presumed complete smoltification by day 44. • Day 50: Third sampling. • Day 51-78: Postsmolt, growth in seawater phase. • Growth on different diets, no other manipulations. • Day 78: Fourth sampling. Day 79-94: Infection test—salmon lice • A proportion of the fish were taken out of all test vessels on day 79; anesthetized, marked, collected in a common large vessel and infected with salmon lice. • Bulk weighing of the fish taken out for the lice test. • The experimental fish were then distributed according to original diet group, in two new vessels, for further observation. • Day 94: Fourth sampling, lice test completed. […]
# [2] = Sialic acids in skin and intestinal mucus and plasma of salmon fed 1% Neu5Ac (bioavailability); assay type: in vivo, Atlantic salmon (Salmo salar)
# Description: as §1
# as §2, with “sampling.” for “sampling. Day 79-94: Infection test—salmon lice • A proportion of the fish were taken out of all test vessels on day 79; anesthetized, marked, collected in a common large vessel and infected with salmon lice. • Bulk weighing of the fish taken out for the lice test. • The experimental fish were then distributed according to original diet group, in two new vessels, for further observation. • Day 94: Fourth sampling, lice test completed.”
# To separate life history effects from a general assessment of bioavailability, the samples from the longest continuous growth phase are first analyzed without experimental manipulations. […]
# [3] = Example 2 mucosal health of gills and skin after sea lice challenge; assay type: in vivo, Atlantic salmon; settings: fifteen days following challenge with salmon lice; 2 of 3 tanks
# Description: An experiment was conducted to determine the mucosal health status of gills, dorsal skin and foregut of Atlantic salmon smolt and postsmolt given sialic acid (NANA) treatment at a single dose (1% in feed) or a control treatment and challenged by sea lice exposure.
# Atlantic salmon were reared in the flow-through system of the ILAB facility at 12 C and were reared in freshwater through smoltification to seawater in six tanks, 3 tanks per treatment. The gills and dorsal skin of the fish (n=30 per date, 5 from each replicate tank) were individually sampled on each of the following dates. The foregut of 30 fish was sampled once, while skin samples were not collected on the same date. The samples were processed (buffered formalin fixation, paraffin embedding, sectioned and stained with PAS-AB), digitally scanned and analyzed for mucous cell density (% epithelium filled with mucous cells, A), defense (mucous) cell sizes (mucous cell area, μm^2, D) and defense activity (barrier status, =(1/(A:D))×1000).
# The fish were transferred to two large holding tanks and challenged with salmon lice and sampled 15 days later.
compound,measurement,setting,value
"CC(=O)N[C@H]1[C@H]([C@H](O)[C@H](O)CO)OC(O)(C(=O)O)C[C@@H]1O (stereo partly shown) [Neu5Ac, N-acetyl neuraminic acid]",% Increase in fitness (condition) factor vs control,[1],19%
same,% Increase in length vs control,[1],5%
same,% Increase in weight vs control,[1],22%
same,Bioavailability of free Neu5Ac in feed,"[2]; 1% Neu5Ac in feed, salmon, listed as Free Neu5Ac",bioavailable; also recorded: biologically available
same,Free Neu5Ac in the intestinal mucosa vs control diet,"[2]; postsmolt, Day 78",highly significant
same,Total Neu5Ac in the intestinal mucosa vs control diet (elevated level),"[2]; postsmolt, Day 78",weakly significant
same,Gill mucous cell size after challenge,[3],not significantly reduced
